# Measured values: patent US8173428B2, “LNA oligonucleotides and the treatment of cancer” (Santaris Pharma A/S, priority 2004, dated 2012)
# Oligonucleotides are written 5' to 3', each unit as a sugar letter and its base; * is a phosphorothioate linkage, no mark a phosphodiester; rarer units and linkages stand in square brackets, end groups in braces. Plain capitals give the bases only. l = locked nucleic acid (LNA); [5mC] = 5-methylcytosine; d = 2'-deoxy (DNA)
# Experiments:
# 15PC3 cells = assay: Caspase 3/7 activity (apoptosis) in transfected 15PC3 cells; format: cell-based, human
# Protocol: Culturing of cells: 15PC3 was cultured in DMEM (Sigma) containing 10% fetal bovine serum, Glutamax I and gentamicin at 37° C., 95% humidity and 5% CO2. The cervical carcinoma cell line HeLa were cultured in MEM (Sigma) containing 10% fetal bovine serum, Glutamax I and gentamicin at 37° C., 95% humidity and 5% CO2. When reaching 60-70% confluency, the cells were transfected using Lipofectamine 2000 (5 μg/ml).
# 15PC3 cells were seeded to a density of 10000 cells per well in white 96-well plates (Nunc 136101) in DMEM the day prior to transfection. The next day cells were washed once in prewarmed OptiMEM followed by addition of 72 μl OptiMEM containing 5 μg/ml Lipofectamine-2000 (In vitrogen). Cells were incubated for 7 min before adding 18 μl oligonucleotides diluted in OptiMEM. The final oligonucleotide concentration ranged from 0.2 nM to 100 nM. After 4 hours of treatment, cells were washed in OptiMEM and 100 μl DMEM containing serum was added. Following oligonucleotide treatment, cells were allowed to recover for the period indicated before they were removed from the CO2 incubator and equilibrated to room temperature for 15 min. 100 μl of the highly sensitive Caspase 3/7-Glo™ Reagent (Promega) was added directly to the cells, and the plates were incubated for 20 min. Luminescence (luciferase activity) was recorded in a Luminoskan Ascent instrument (Thermo Labsystems). The luciferase activity is measured as Relative Light Units per seconds (RLU/s). The data was analysed using the Ascent software 2.4.2. Graphs of fold induction relative to mock were generated using MS Excel.
# Staurosporine, Camptothecine or Taxol induced cells served as positive controls (see FIGS. 3, 6A and Table 4 plus Example 21).
# Survivin protein = assay: Western blot analysis of Survivin protein levels in transfected 15PC3 cells; format: cell-based, human; settings: 1, 10 and 25 nM, 12, 24 and 48 hours, compared with mock
# Protocol: Cell culturing and transfections: 15PC3 cells were seeded in 12-well plates and grown for two days at 37° C. (5% CO2) in DMEM supplemented with 10% FBS, Glutamax I and Gentamicin. When the cells were 60-70% confluent, they were transfected in duplicates with different concentrations of oligonucleotides (0.2-25 nM) using Lipofectamine 2000 (10 μg/ml). Transfections were carried out essentially as described by Dean et al. (1994, JBC 269:16416-16424). In short, cells were incubated for 10 min. with Lipofectamine in OptiMEM followed by addition of oligonucleotide to a total volume of 0.5 ml transfection mix per well. After 4 hours, the transfection mix was removed, cells were washed and grown at 37° C. for approximately 20 hours (mRNA analysis) or 12-72 hours (protein analysis) in the appropriate growth medium. Cells were then harvested for protein and RNA analysis.
# The in vitro effect of Survivin oligoes on Survivin protein levels in transfected cells was determined by Western Blotting.
# Cells were harvested and lysed in 50 mM Tris-HCl pH 6.8, 10% glycerol, 2.5% SDS, 5 mM DTT and 6 M urea supplemented with protease inhibitor cocktail (Roche). Total protein concentrations were measured using a BCA protein assay kit (Pierce). 50 μg total protein was run on a 12% Bis-Tris gels in MOPS buffer and blotted onto a PVDF membranes according to manufacture's instructions (Invitrogen). […]
substance,measurement,setting,value
5′-^MeCsTs^MeCsAsastscscsastsgsgs^MeCsAsGsc-3′ (l[5mC]*lT*l[5mC]*lA*dA*dT*dC*dC*dA*dT*dG*dG*l[5mC]*lA*lG*dC) [SEQ ID NO. 2],"Apoptosis At 5 nM, 24 hours","15PC3 cells; 5 nM, 24 hours (Table 7, FIG. 3)",3.5-fold
same,Max Apoptosis,"15PC3 cells; 25 nM, 24 hours (Table 7)",6.5-fold
same,"Maximum Induction Fold-induction of apoptosis, Caspase 3/7 assay","15PC3 cells; 25 nM, 48 hours, 15PC3 cells","6.9 x (25 nM, 48 hours)"
same,"Fold induction of apoptosis, Caspase 3/7 assay","15PC3 cells; 24 hours, 5 nM, 15PC3 cells, relative to mock",3.5 x
same,Survivin protein expression by Western blotting,Survivin protein,Survivin protein down-regulation
